For four compounds, solubility in water results are on record in patent US20170209346A1, “SHAPED CELLULOSE BODIES WITH PHYSIOLOGICALLY ACTIVE MINERAL SUBSTANCES DISTRIBUTED THEREIN” (smartpolymer GmbH, priority 2014, published 2017).

Read-outs that look alike come from different tables or passages of the source.

The conditions of data set [1]: literature data, cited from earlier work.
Data set [2] in a line: Solubility of mineral compounds in water. The settings on record: at 20° C.; chemically pure material used in Example 1. The source says: The mineral compounds contain at least one mineral from the group consisting of sodium, potassium, calcium and magnesium and zinc. […] Water solubility is a prerequisite for the activity of the mineral compounds used, since corresponding anions and cations can thus be released.
This reported solubility is based on literature data. This list in no way restricts the actual multiplicity of possible mineral compounds having the required properties.

Consider `[O]=[Mg]` [Magnesium oxide], for which the solubility in water in data set [1] (temperature not given) was 12 µg/mL.

Consider `[O]=[Mg]` [type 1 magnesium oxide, magnesium oxide], for which, in data set [2], the solubility in water came out at 12.5 µg/mL.

For the compound Hydroxylapatite, in data set [1] (20° C.), the solubility in water is 6.57 µg/mL. As to `[O]=[Zn]` [Zinc oxide], the solubility in water in data set [1] (29° C.) was 1.6 µg/mL.
